From publication PMC7155171, “Probing the Open Global Health Chemical Diversity Library for Multistage-Active Starting Points for Next-Generation Antimalarials” (ACS Infectious Diseases, 2020) come the findings set out here.

Data set [1] relates to HepG2-A16-CD81 hepatocytes. Description: HepG2 cytotoxicity screening (CellTiter-Glo). The following applies: for HepG2 cytotoxicity 12pt dose response: Maximum inhibition (%): 12pt dose response.
Data set [2] can be described thus: HepG2 cytotoxicity screening (CellTiter-Glo). The following applies: human, uninfected HepG2-A16-CD81 (EGFP) hepatocytes.
Data set [3] relates to P. berghei liver stage (PbLuc). As to the kind of experiment: P. berghei luciferase liver stage (PbLuc) assay in HepG2-A16-CD81 hepatocytes. The class given is cell-based, Plasmodium berghei. The following applies: Plasmodium berghei; for IC50: HepG2-A16-CD81, 12pt dose response, read-out: PbLuc 12pt dose response: IC50; for Emax: HepG2-A16-CD81, 48 h, 12pt dose response, maximum inhibition.

The target of data set [4] is recombinant firefly luciferase (Photinus pyralis, UniProt P08659). As to the kind of experiment: biochemical. The following applies: dose response; for Emax: maximum inhibition, read-out: rLuc inhibition dose response: Maximum inhibition (%); for IC50: read-out: rLuc inhibition dose response: IC50.
Chain of recombinant firefly luciferase (P08659 whole entry): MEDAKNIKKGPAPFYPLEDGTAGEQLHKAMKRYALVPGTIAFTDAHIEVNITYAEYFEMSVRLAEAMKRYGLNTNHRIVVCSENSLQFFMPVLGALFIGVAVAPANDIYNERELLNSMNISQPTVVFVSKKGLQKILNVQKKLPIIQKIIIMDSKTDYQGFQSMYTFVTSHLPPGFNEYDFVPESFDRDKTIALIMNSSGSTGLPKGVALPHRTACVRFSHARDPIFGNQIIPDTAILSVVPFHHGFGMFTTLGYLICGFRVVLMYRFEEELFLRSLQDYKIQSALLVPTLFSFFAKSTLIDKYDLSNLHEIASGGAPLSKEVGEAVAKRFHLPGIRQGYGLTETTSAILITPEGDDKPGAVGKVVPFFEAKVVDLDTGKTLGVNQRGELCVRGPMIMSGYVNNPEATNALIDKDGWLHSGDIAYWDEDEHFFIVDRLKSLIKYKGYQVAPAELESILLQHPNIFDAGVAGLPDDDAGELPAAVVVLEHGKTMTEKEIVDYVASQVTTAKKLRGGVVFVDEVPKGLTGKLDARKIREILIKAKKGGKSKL

Turning to `CC1(c2ccccc2)CCCN(Cc2cncn2C2CCCC2)C1` (stereo not drawn) [UCSD-0827293], in data set [1], the “HepG2 Cytotoxicity primary screen (2uM): % Inhibition” value is listed as -6.73% and the “HepG2 cytotoxicity 12pt dose response: Maximum inhibition (%)” value is reported as 58%. The midpoint of inhibition in data set [2], the IC50, lay at 18.7 µM. In addition, in data set [3], the IC50 came to 13.5 µM and the Emax was found to be 95.5%. Besides, in data set [4], the Emax came to 7.12% and the IC50 is more than 25 µM.

On to `Clc1ccccc1-c1cc(CNc2ncnc3c2CCNCC3)no1` [UCSD-0827811], for which, in data set [1], the “HepG2 Cytotoxicity primary screen (2uM): % Inhibition” value is -1.07% and the “HepG2 cytotoxicity 12pt dose response: Maximum inhibition (%)” value is reported as 49.9%. The molecule further returned an IC50 in data set [2] of more than 25 µM. In data set [3], the IC50 was 13.6 µM and the Emax was 93.4%. Further, in data set [4], the Emax came out at 12.2% and the IC50 was more than 25 µM.

Regarding `CC(C)CN1CCCC1c1ccc(C(=O)Nc2cccnc2)s1` (stereo not drawn) [UCSD-0828121], the “HepG2 cytotoxicity 12pt dose response: Maximum inhibition (%)” value in data set [1] is given as 5.88%. Also, in data set [2], the IC50 is more than 25 µM and the inhibition at 2 µM amounted to 3.83%. Besides, the IC50 in data set [3] stood at 9.26 µM. Moreover, in data set [4], the Emax is 38.6% and the IC50 was more than 25 µM.

As to `Fc1ccc(N2CCCN(c3ccc(Cn4ccnc4)cn3)CC2)cc1` [UCSD-0828381], in data set [1], the “HepG2 Cytotoxicity primary screen (2uM): % Inhibition” value came out at 3.83% and the “HepG2 cytotoxicity 12pt dose response: Maximum inhibition (%)” value is on record as 52.6%. The IC50 in data set [2] was determined as 23.9 µM. In addition, in data set [3], the IC50 is 1.16 µM and the Emax was determined as 98.9%. Besides, in data set [4], the Emax turned out to be 34.7% and the IC50 is more than 25 µM.

In the case of `COc1ccc2cc(C3CN(C(=O)CCNC(C)=O)CCO3)ccc2c1` (stereo not drawn) [UCSD-0829391], the “HepG2 cytotoxicity 12pt dose response: Maximum inhibition (%)” value in data set [1] came to 2.45%. For the same molecule, the IC50 in data set [2] was more than 25 µM; in data set [3] it was 0.333 µM; in data set [4], 9.9 µM. The inhibition at 2 µM in data set [2] is -3.5%; in data set [3] (HepG2-A16-CD81, primary screen, 2 uM) it was -1.1%. Further, the Emax in data set [3] was found to be 85.2%; in data set [4], 67.5%.

As for `c1ccc(OCCNc2ncnc3sc4c(c23)CCNC4)cc1` [UCSD-0829760], the “HepG2 cytotoxicity 12pt dose response: Maximum inhibition (%)” value in data set [1] came out at 42.9%. Also, in data set [2], the IC50 is more than 25 µM and the inhibition at 2 µM was -2.42%. Further, in data set [3], the IC50 turned out to be 9.15 µM and the Emax worked out at 73%. Moreover, in data set [4], the Emax is 7.54% and the IC50 was more than 25 µM.

For `CC(=O)N1CCN(Cc2cccc3c2sc2ccccc23)CC(O)C1` (stereo not drawn) [UCSD-0830872], the “HepG2 cytotoxicity 12pt dose response: Maximum inhibition (%)” value in data set [1] came out at 10.8%. For the same molecule, the IC50 is more than 25 µM in data set [2], 5.87 µM in data set [3] and more than 25 µM in data set [4]. Also, the inhibition at 2 µM in data set [2] was 6.03%. Also, the values for the Emax in data set [3] and in data set [4] were 91% and 15.6%, respectively.

In the case of `CCc1cnc(N)nc1NC(C)c1ccc(C)c(C)c1` (stereo not drawn) [UCSD-0831195], the “HepG2 cytotoxicity 12pt dose response: Maximum inhibition (%)” value in data set [1] was determined as 56%. For the same molecule, in data set [2], the IC50 is more than 25 µM and the inhibition at 2 µM was 3.76%. Moreover, in data set [3], the IC50 was determined as 0.433 µM and the Emax came out at 89.9%. In data set [4], the Emax was 17.1% and the IC50 is more than 50 µM.

In the case of `CNC(=O)CCC(=O)N1CCOC(c2ccc3cc(OC)ccc3c2)C1` (stereo not drawn) [UCSD-0831800], the “HepG2 cytotoxicity 12pt dose response: Maximum inhibition (%)” value in data set [1] was found to be 1%. Further, in data set [2], the IC50 is more than 25 µM, the inhibition at 2 µM is -0.85% and the inhibition at 10 µM turned out to be 3.9%. In data set [3], the IC50 came out at 0.000954 µM and the Emax is 88.9%. Further, in data set [4], the Emax is 66.4% and the IC50 came to 23.5 µM.

As to `COc1ccc(-c2cc(CNc3ncnc4c3CCNCC4)no2)cc1` [UCSD-0833048], the “HepG2 Cytotoxicity primary screen (2uM): % Inhibition” value in data set [1] worked out at 4.02%. Further, the “HepG2 cytotoxicity 12pt dose response: Maximum inhibition (%)” value in data set [1] worked out at 49.3%. Moreover, the results for the half-inhibitory concentration (IC50) in data set [2], in data set [3] and in data set [4] were more than 25 µM, 10.2 µM and more than 25 µM, respectively. Besides, the Emax was 91.8% in data set [3] and 0.184% in data set [4].

On to `CC(C)(CO)Nc1ccc(-c2nc(-c3ccccc3F)no2)cn1` [UCSD-0833103], for which, in data set [1], the “HepG2 cytotoxicity 12pt dose response: Maximum inhibition (%)” value is 34.7%. The half-inhibitory concentration (IC50) in data set [2] is more than 25 µM; in data set [3] it was less than 0.000141 µM; in data set [4] it was 0.045 µM. Besides, in data set [2], the inhibition at 2 µM amounted to 2.86%. The figures for the Emax in data set [3] and in data set [4] were 98.5% and 93.7%, respectively.

In the case of `CC(Nc1ncnc2c1CCNC2)c1ccc2c(c1)CCCC2` (stereo not drawn) [UCSD-0833335], the “HepG2 Cytotoxicity primary screen (2uM): % Inhibition” value in data set [1] was 0.57%. For the same molecule, in data set [1], the “HepG2 cytotoxicity 12pt dose response: Maximum inhibition (%)” value is listed as 57.6%. Moreover, the 50% inhibitory concentration (IC50) was 18.4 µM in data set [2], 9.75 µM in data set [3] and more than 25 µM in data set [4]. In addition, the Emax in data set [3] worked out at 79.1%; in data set [4], 12.6%.

For `Cc1cc(NC(=O)c2ccc(CN3CC[C@H](O)C3)cc2)ccc1F` [UCSD-0834308], the “HepG2 cytotoxicity 12pt dose response: Maximum inhibition (%)” value in data set [1] turned out to be 10.3%. Further, in data set [2], the IC50 was more than 50 µM and the inhibition at 2 µM was determined as 7.88%. In addition, in data set [3], the 50% inhibitory concentration (IC50) is less than 0.000282 µM and the Emax turned out to be 104%. For the same molecule, in data set [4], the Emax stood at 100% and the half-maximal inhibitory concentration (IC50) is less than 0.0244 µM.

Take `CCOC(=O)N1CCN(c2nc(CCN)nc3sc(C)c(C)c23)CC1` [UCSD-0834429]: the “HepG2 cytotoxicity 12pt dose response: Maximum inhibition (%)” value in data set [1] was 28%. In data set [2], the IC50 was more than 25 µM, the inhibition at 2 µM is -5.69% and the inhibition at 10 µM is -49.3%. In data set [3], the IC50 came to 8.74 µM and the Emax turned out to be 87.7%. Also, in data set [4], the Emax was found to be 5.96% and the IC50 was more than 25 µM.

With `CCCc1cncnc1N1CCC(NCc2cc3ccccc3[nH]2)CC1` [UCSD-0834906], the “HepG2 cytotoxicity 12pt dose response: Maximum inhibition (%)” value in data set [1] is recorded as 32.8%. Further, in data set [2], the IC50 is more than 25 µM and the inhibition at 2 µM was found to be 7.01%. For the same molecule, in data set [3], the IC50 is 1.84 µM and the Emax was found to be 97.5%. Besides, in data set [4], the Emax worked out at 31.4% and the half-maximal inhibitory concentration (IC50) was more than 25 µM.

Take `COc1cccc(-c2noc3c2CN(c2ncnc4c2CCC4)CC3)c1` [UCSD-0837523]: the “HepG2 cytotoxicity 12pt dose response: Maximum inhibition (%)” value in data set [1] was 52%. In data set [2], the IC50 is 8.51 µM and the inhibition at 2 µM is -0.62%. Moreover, in data set [3], the IC50 is 5.79 µM and the Emax amounted to 84.4%. Moreover, in data set [4], the Emax worked out at 15.5% and the IC50 was more than 25 µM.

For the molecule `Cc1csc2ncnc(N3CCC(Cn4cc(C(C)(C)N)nn4)CC3)c12` [UCSD-0838044], in data set [1], the “HepG2 Cytotoxicity primary screen (2uM): % Inhibition” value was determined as 4.60% and the “HepG2 cytotoxicity 12pt dose response: Maximum inhibition (%)” value was determined as 46.5%. Also, the IC50 in data set [2] is more than 25 µM. Moreover, in data set [3], the IC50 was determined as 11.4 µM and the Emax came to 71.7%. In data set [4], the Emax turned out to be 21.9% and the IC50 was more than 25 µM.

Consider `COc1ccc2cc(C3CN(C(=O)N(C)C)CCO3)ccc2c1` (stereo not drawn) [UCSD-0838135], for which the “HepG2 cytotoxicity 12pt dose response: Maximum inhibition (%)” value in data set [1] came to 6.4%. Further, in data set [2], the IC50 is more than 25 µM and the inhibition at 2 µM is -0.4%. Besides, in data set [3], the IC50 was less than 0.000141 µM and the Emax is 82.4%. For the same molecule, in data set [4], the Emax worked out at 91.8% and the IC50 turned out to be 3.45 µM.

As to `COCc1noc(-c2ccc(N3CCCCC3CO)nc2)n1` (stereo not drawn) [UCSD-0838277], the “HepG2 cytotoxicity 12pt dose response: Maximum inhibition (%)” value in data set [1] is listed as 0.196%. Besides, in data set [2], the IC50 is more than 25 µM and the inhibition at 2 µM was -1.51%. Also, in data set [3], the IC50 is less than 0.000141 µM and the Emax was 82.5%. Also, in data set [4], the Emax was 73.7% and the IC50 was 6.29 µM.
